Experiments:
Human melanocortin (MC5) = target: T1, Human melanocortin (MC5) (Homo sapiens, UniProt P33032); experiment: Radioligand binding, human melanocortin MC5 membranes, FlashPlate, [125I]-NDP-αMSH; conditions: compound at 10 μM; for A5 radioligand binding inhibition: human melanocortin MC5 membranes
T1 construct: purchased Perkin Elmer Biosignal
How it was run: (§1)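 Cloned human receptor membranes were coated onto FlashPlate wells and incubated with radioligand and compound (added from a 0.5 mM DMSO daughter plate) for 1 hour at room temperature in the dark. Scintillation counting gave percent inhibition, with DMSO defining total and reference ligand defining non-specific binding.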

Human δ-opioid (DOP) = target: T2, Human δ-opioid (DOP) (Homo sapiens, UniProt P41143); experiment: Radioligand binding, human δ-opioid (DOP) membranes, FlashPlate, [3H]-Bremazocine; conditions: compound at 10 μM; for A1 radioligand binding inhibition: human δ-opioid (DOP) membranes
T2 construct: purchased Perkin Elmer Biosignal
How it was run: as §1

Human Melanocortin (MC3) = target: T3, Human Melanocortin (MC3) (Homo sapiens, UniProt P41968); experiment: Radioligand binding, human melanocortin MC3 membranes, FlashPlate, [125I]-NDP-αMSH; conditions: compound at 10 μM; for A3 radioligand binding inhibition: human melanocortin MC3 membranes
T3 construct: purchased Perkin Elmer Biosignal
How it was run: as §1

Human μ-opioid (MOP) = target: T4, Human μ-opioid (MOP) (Homo sapiens, UniProt P35372); experiment: Radioligand binding, human μ-opioid (MOP) membranes, FlashPlate, [3H]-Naloxone; conditions: compound at 10 μM; for A7 radioligand binding inhibition: human μ-opioid (MOP) membranes
T4 construct: purchased Perkin Elmer Biosignal
How it was run: as §1

Human Melanocortin (MC4) = target: T5, Human Melanocortin (MC4) (Homo sapiens, UniProt P32245); experiment: Radioligand binding, human melanocortin MC4 membranes, FlashPlate, [125I]-NDP-αMSH; conditions: compound at 10 μM; for A4 radioligand binding inhibition: human melanocortin MC4 membranes
T5 construct: purchased Perkin Elmer Biosignal
How it was run: as §1

Human neurokinin (NK1) = target: T6, Human neurokinin (NK1) (Homo sapiens, UniProt P25103); experiment: Radioligand binding, human neurokinin NK1 membranes, filtration, [125I]-Substance P; conditions: compound at 10 μM; for A8 radioligand binding inhibition: human neurokinin NK1 membranes
T6 construct: purchased Perkin Elmer Biosignal
How it was run: (§2)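 Percent inhibition of radioligand binding measured on recombinant human membranes: NK1 with [125I]-Substance P, KOP with [3H]-Diprenorphine. Incubation 1 h at room temperature, then harvest onto 0.3% PEI-soaked filters, cold Tris-HCl pH 7.4 washes and scintillation counting; non-specific binding from reference ligand wells.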

Human opioid (ORL1) = target: T7, Human opioid (ORL1) (Homo sapiens, UniProt P41146); experiment: Radioligand binding, human opioid ORL1 membranes, FlashPlate, [125I]-Nociceptin; conditions: compound at 10 μM
T7 construct: purchased Perkin Elmer Biosignal
How it was run: as §1

Mouse urotensin (mUR2) = target: T8, Mouse urotensin (mUR2) (Mus musculus, UniProt Q8VIH9); experiment: Radioligand binding, mouse urotensin mUR2 membranes, FlashPlate, [125I]-Urotensin II; conditions: compound at 10 μM; for A11 radioligand binding inhibition: mouse urotensin mUR2 membranes
T8 construct: purchased Perkin Elmer Biosignal
T8 sequence (Q8VIH9 1-385): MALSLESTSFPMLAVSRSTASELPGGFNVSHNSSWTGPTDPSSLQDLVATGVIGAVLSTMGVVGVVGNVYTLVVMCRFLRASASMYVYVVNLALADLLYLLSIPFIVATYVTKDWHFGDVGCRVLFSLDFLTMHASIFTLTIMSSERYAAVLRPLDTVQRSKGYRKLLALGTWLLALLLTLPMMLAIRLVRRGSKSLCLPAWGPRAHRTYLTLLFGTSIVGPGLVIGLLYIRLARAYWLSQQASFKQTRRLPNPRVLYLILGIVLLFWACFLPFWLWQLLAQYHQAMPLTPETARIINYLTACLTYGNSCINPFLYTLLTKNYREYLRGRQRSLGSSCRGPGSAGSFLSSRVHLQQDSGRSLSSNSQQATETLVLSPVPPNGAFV
How it was run: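 Cloned mouse urotensin (mUR2) receptor membranes from Perkin Elmer Biosignal were immobilized in FlashPlate microplates using a proprietary coating. Each well got 19.5 μl buffer, then 0.5 μl of DMSO, reference ligand, or compound. Adding 5 μl of [125I]-Urotensin II, diluted to 5× final concentration in binding buffer, started binding. Plates were sealed with TopSeal-A and incubated 1 hour at room temperature in the dark. Wells were counted for 30 seconds each on a TopCount after a 60-second delay, and percentage inhibition was calculated.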

[1] = target: T9, Human neuropeptide Y (NPY-Y1) (Homo sapiens, UniProt P25929); experiment: Radioligand binding, human neuropeptide Y NPY-Y1 membranes, FlashPlate, [125I]-PYY; conditions: compound at 10 μM
T9 construct: purchased Perkin Elmer Biosignal
T9 sequence (P25929 1-384): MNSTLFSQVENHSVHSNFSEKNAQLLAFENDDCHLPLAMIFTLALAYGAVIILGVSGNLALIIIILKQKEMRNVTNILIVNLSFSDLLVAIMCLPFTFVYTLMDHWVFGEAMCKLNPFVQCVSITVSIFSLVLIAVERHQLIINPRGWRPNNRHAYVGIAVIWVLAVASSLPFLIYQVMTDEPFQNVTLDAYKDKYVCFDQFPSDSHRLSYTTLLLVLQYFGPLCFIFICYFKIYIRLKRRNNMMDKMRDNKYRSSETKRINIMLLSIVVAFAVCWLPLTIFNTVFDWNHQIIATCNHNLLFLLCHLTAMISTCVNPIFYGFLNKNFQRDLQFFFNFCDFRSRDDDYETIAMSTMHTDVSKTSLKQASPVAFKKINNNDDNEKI
How it was run: as §1

Human κ-Opioid (KOP) = target: T10, Human κ-Opioid (KOP) (Homo sapiens, UniProt P41145); experiment: Radioligand binding, human κ-opioid (KOP) membranes, filtration, [3H]-Diprenorphine; conditions: compound at 10 μM; for A2 radioligand binding inhibition: human κ-opioid (KOP) membranes
T10 construct: purchased Perkin Elmer Biosignal
How it was run: as §2

[2] = target: T11, Human melanin-concentrating hormone (MCH1) (Homo sapiens, UniProt Q99705); experiment: Radioligand binding, human melanin-concentrating hormone MCH1 membranes, FlashPlate, [125I]-S36057; conditions: compound at 10 μM; for A6 radioligand binding inhibition: human MCH1 membranes
T11 construct: purchased Perkin Elmer Biosignal
How it was run: as §1

T6 sequence (P25103 whole entry): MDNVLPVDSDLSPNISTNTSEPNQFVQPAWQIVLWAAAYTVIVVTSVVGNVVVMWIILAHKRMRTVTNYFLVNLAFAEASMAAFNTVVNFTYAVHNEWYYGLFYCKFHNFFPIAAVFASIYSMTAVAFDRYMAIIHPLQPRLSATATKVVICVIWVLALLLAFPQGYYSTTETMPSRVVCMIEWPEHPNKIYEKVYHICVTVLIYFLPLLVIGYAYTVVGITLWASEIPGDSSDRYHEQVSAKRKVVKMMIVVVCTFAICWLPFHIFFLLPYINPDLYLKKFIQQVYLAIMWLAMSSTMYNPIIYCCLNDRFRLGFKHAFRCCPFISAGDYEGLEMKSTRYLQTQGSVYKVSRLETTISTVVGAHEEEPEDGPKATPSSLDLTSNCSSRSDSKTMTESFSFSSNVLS
T7 sequence (P41146 whole entry): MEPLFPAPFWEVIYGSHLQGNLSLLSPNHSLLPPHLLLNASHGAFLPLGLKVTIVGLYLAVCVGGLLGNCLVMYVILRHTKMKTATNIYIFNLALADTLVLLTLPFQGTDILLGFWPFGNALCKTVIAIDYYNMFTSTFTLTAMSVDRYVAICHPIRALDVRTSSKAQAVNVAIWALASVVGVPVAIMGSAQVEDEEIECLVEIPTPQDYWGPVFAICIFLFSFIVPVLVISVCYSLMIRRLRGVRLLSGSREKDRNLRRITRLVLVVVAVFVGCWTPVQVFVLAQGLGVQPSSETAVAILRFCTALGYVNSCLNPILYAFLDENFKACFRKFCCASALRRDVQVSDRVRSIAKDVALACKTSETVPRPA
T2 sequence (P41143 whole entry): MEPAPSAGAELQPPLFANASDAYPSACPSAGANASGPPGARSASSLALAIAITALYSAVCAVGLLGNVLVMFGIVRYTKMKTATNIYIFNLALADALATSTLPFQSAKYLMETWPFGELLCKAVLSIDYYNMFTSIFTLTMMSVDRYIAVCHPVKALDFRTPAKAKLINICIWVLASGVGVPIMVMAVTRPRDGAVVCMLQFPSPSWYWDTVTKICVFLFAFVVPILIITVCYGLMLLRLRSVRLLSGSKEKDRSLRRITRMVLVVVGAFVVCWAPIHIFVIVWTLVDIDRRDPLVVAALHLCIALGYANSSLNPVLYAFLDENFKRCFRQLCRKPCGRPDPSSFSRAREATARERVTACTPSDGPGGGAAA
T10 sequence (P41145 whole entry): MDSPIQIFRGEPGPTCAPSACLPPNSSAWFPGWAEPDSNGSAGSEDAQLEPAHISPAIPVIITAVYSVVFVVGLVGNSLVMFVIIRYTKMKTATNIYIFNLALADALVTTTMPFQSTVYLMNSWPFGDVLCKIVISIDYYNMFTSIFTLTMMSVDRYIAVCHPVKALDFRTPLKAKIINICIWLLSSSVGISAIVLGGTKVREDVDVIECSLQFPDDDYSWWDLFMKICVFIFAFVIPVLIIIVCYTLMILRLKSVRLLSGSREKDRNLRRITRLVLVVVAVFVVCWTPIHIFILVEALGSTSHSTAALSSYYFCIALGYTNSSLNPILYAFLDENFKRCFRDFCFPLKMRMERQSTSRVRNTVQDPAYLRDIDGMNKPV
T5 sequence (P32245 whole entry): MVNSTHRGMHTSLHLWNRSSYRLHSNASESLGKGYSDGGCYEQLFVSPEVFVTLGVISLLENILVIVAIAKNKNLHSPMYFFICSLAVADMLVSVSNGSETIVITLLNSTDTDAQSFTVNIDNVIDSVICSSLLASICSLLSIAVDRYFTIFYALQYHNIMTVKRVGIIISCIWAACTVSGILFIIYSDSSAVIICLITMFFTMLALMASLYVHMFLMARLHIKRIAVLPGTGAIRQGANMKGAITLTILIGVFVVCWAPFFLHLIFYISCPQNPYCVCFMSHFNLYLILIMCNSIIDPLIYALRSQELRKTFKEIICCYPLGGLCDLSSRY
T1 sequence (P33032 whole entry): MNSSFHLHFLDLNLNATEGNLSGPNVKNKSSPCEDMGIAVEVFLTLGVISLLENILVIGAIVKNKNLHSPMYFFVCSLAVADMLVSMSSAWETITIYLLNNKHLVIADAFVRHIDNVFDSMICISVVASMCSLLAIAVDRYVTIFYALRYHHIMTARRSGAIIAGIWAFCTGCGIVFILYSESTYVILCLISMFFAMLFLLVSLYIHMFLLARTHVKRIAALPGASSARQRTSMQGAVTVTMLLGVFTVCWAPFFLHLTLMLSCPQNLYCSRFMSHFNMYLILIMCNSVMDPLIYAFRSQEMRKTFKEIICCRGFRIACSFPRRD
T11 sequence (Q99705 whole entry): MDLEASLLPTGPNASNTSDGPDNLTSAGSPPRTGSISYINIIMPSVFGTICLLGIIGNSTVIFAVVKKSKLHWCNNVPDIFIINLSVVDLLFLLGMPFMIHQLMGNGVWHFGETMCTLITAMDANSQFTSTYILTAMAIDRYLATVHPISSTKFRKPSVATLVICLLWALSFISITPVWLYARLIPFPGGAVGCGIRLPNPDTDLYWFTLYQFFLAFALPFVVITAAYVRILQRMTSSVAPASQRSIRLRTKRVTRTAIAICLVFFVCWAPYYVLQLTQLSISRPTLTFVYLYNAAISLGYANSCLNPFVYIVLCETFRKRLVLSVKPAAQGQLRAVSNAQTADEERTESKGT
T3 sequence (P41968 whole entry): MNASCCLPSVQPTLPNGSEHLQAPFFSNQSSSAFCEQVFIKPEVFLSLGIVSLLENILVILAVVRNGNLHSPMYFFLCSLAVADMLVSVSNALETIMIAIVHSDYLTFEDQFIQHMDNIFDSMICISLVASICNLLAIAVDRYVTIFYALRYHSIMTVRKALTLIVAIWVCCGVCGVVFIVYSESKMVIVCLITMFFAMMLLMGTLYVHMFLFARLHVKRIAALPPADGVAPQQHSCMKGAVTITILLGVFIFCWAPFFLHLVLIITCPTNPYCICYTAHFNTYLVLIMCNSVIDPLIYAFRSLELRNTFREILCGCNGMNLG
T4 sequence (P35372 whole entry): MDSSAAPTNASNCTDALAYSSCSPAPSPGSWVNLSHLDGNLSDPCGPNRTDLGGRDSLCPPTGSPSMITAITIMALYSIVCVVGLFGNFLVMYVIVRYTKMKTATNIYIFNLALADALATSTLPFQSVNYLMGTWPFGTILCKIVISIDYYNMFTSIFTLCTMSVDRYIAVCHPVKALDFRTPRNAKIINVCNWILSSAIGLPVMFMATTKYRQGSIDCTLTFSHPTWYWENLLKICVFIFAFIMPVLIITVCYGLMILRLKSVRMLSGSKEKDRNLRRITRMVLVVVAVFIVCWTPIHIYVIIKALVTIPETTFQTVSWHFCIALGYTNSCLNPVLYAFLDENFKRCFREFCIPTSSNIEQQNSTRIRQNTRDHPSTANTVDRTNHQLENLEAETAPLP

N=C(N)NCCCC(=O)NC1C(OCc2ccc(-c3ccccc3)cc2)OC(COCc2ccccc2)C(O)C1OCc1ccccc1 (stereo not shown) [compound 435]
A5: inhibition of radioligand binding (Human melanocortin (MC5); [125I]-NDP-αMSH, human MC5 membranes): + (“+” indicates greater than 50% inhibition at 10 μM) | A1: inhibition of radioligand binding (Human δ-opioid (DOP); [3H]-Bremazocine, human DOP membranes): − (“−” indicates less than 50% inhibition at 10 μM) | A3: inhibition of radioligand binding (Human Melanocortin (MC3); [125I]-NDP-αMSH, human MC3 membranes): + (“+” indicates greater than 50% inhibition at 10 μM) | A7: inhibition of radioligand binding (Human μ-opioid (MOP); [3H]-Naloxone, human MOP membranes): + (“+” indicates greater than 50% inhibition at 10 μM) | A4: inhibition of radioligand binding (Human Melanocortin (MC4); [125I]-NDP-αMSH, human MC4 membranes): + (“+” indicates greater than 50% inhibition at 10 μM) | A8: inhibition of radioligand binding (Human neurokinin (NK1); [125I]-Substance P, human NK1 membranes): + (“+” indicates greater than 50% inhibition at 10 μM) | A10: inhibition of radioligand binding (Human opioid (ORL1); [125I]-Nociceptin, human ORL1 membranes): + (“+” indicates greater than 50% inhibition at 10 μM) | A11: inhibition of radioligand binding (Mouse urotensin (mUR2); [125I]-Urotensin II, mouse mUR2 membranes): − (“−” indicates less than 50% inhibition at 10 μM) | A9: inhibition of radioligand binding ([1]; [125I]-PYY, human NPY-Y1 membranes): − (“−” indicates less than 50% inhibition at 10 μM) | A2: inhibition of radioligand binding (Human κ-Opioid (KOP); [3H]-Diprenorphine, human KOP membranes): + (“+” indicates greater than 50% inhibition at 10 μM) | A6: inhibition of radioligand binding ([2]; [125I]-S36057, human MCH1 membranes): + (“+” indicates greater than 50% inhibition at 10 μM)

NCCC(=O)NC1C(OCc2ccc(Cl)cc2)OC(COCc2ccccc2)C(O)C1OCc1ccccc1 (single isomer, unassigned) [compound 485]
A5: inhibition of radioligand binding, human melanocortin (MC5) (Human melanocortin (MC5); [125I]-NDP-αMSH): − (“−” indicates less than 50% inhibition at 10 μM) | A1: inhibition of radioligand binding, human δ-opioid (DOP) (Human δ-opioid (DOP); [3H]-Bremazocine): − (“−” indicates less than 50% inhibition at 10 μM) | A3: inhibition of radioligand binding, human melanocortin (MC3) (Human Melanocortin (MC3); [125I]-NDP-αMSH): − (“−” indicates less than 50% inhibition at 10 μM) | A7: inhibition of radioligand binding, human μ-opioid (MOP) (Human μ-opioid (MOP); [3H]-Naloxone): − (“−” indicates less than 50% inhibition at 10 μM) | A4: inhibition of radioligand binding, human melanocortin (MC4) (Human Melanocortin (MC4); [125I]-NDP-αMSH): − (“−” indicates less than 50% inhibition at 10 μM) | A8: inhibition of radioligand binding, human neurokinin (NK1) (Human neurokinin (NK1); [125I]-Substance P): + (“+” indicates greater than 50% inhibition at 10 μM) | A10: inhibition of radioligand binding, human opioid (ORL1) (Human opioid (ORL1); [125I]-Nociceptin): − (“−” indicates less than 50% inhibition at 10 μM) | A11: inhibition of radioligand binding, mouse urotensin (mUR2) (Mouse urotensin (mUR2); [125I]-Urotensin II): − (“−” indicates less than 50% inhibition at 10 μM) | A9: inhibition of radioligand binding, human neuropeptide Y (NPY-Y1) ([1]; [125I]-PYY): − (“−” indicates less than 50% inhibition at 10 μM) | A2: inhibition of radioligand binding, human κ-opioid (KOP) (Human κ-Opioid (KOP); [3H]-Diprenorphine): − (“−” indicates less than 50% inhibition at 10 μM) | A6: inhibition of radioligand binding, human melanin-concentrating hormone (MCH1) ([2]; [125I]-S36057): − (“−” indicates less than 50% inhibition at 10 μM)

COCC1OC(OCc2ccccc2)C(NC(=O)CCCN)C(OCc2ccc3ccccc3c2)C1O (stereo not shown) [compound 192]
A5: inhibition of radioligand binding (Human melanocortin (MC5); [125I]-NDP-αMSH, FlashPlate): + (“+” indicates greater than 50% inhibition at 10 μM) | A1: inhibition of radioligand binding (Human δ-opioid (DOP); [3H]-Bremazocine, FlashPlate): − (“−” indicates less than 50% inhibition at 10 μM) | A3: inhibition of radioligand binding (Human Melanocortin (MC3); [125I]-NDP-αMSH, FlashPlate): − (“−” indicates less than 50% inhibition at 10 μM) | A7: inhibition of radioligand binding (Human μ-opioid (MOP); [3H]-Naloxone, FlashPlate): − (“−” indicates less than 50% inhibition at 10 μM) | A4: inhibition of radioligand binding (Human Melanocortin (MC4); [125I]-NDP-αMSH, FlashPlate): − (“−” indicates less than 50% inhibition at 10 μM) | A8: inhibition of radioligand binding (Human neurokinin (NK1); [125I]-Substance P, filtration): + (“+” indicates greater than 50% inhibition at 10 μM) | A10: inhibition of radioligand binding (Human opioid (ORL1); [125I]-Nociceptin, FlashPlate): − (“−” indicates less than 50% inhibition at 10 μM) | A11: inhibition of radioligand binding (Mouse urotensin (mUR2); [125I]-Urotensin II, FlashPlate): − (“−” indicates less than 50% inhibition at 10 μM) | A9: inhibition of radioligand binding ([1]; [125I]-PYY, FlashPlate): − (“−” indicates less than 50% inhibition at 10 μM) | A2: inhibition of radioligand binding (Human κ-Opioid (KOP); [3H]-Diprenorphine, filtration): − (“−” indicates less than 50% inhibition at 10 μM) | A6: inhibition of radioligand binding ([2]; [125I]-S36057, FlashPlate): − (“−” indicates less than 50% inhibition at 10 μM)

CO[C@H]1[C@H](O)[C@@H](COCc2ccc(Cl)cc2)OC(OCc2ccccc2)[C@@H]1NC(=O)CCNC(=N)N (stereo partly shown) [compound 91]
A5 radioligand binding inhibition (Human melanocortin (MC5)): − (“−” indicates less than 50% inhibition at 10 μM) | A1 radioligand binding inhibition (Human δ-opioid (DOP)): − (“−” indicates less than 50% inhibition at 10 μM) | A3 radioligand binding inhibition (Human Melanocortin (MC3)): − (“−” indicates less than 50% inhibition at 10 μM) | A7 radioligand binding inhibition (Human μ-opioid (MOP)): − (“−” indicates less than 50% inhibition at 10 μM) | A4 radioligand binding inhibition (Human Melanocortin (MC4)): − (“−” indicates less than 50% inhibition at 10 μM) | A8 radioligand binding inhibition (Human neurokinin (NK1)): + (“+” indicates greater than 50% inhibition at 10 μM) | A10 radioligand binding inhibition (Human opioid (ORL1); human ORL1 membranes): − (“−” indicates less than 50% inhibition at 10 μM) | A11 radioligand binding inhibition (Mouse urotensin (mUR2)): − (“−” indicates less than 50% inhibition at 10 μM) | A9 radioligand binding inhibition ([1]; human NPY-Y1 membranes): − (“−” indicates less than 50% inhibition at 10 μM) | A2 radioligand binding inhibition (Human κ-Opioid (KOP)): − (“−” indicates less than 50% inhibition at 10 μM) | A6 radioligand binding inhibition [2]: − (“−” indicates less than 50% inhibition at 10 μM)

CO[C@H]1[C@H](O)[C@@H](COCc2ccc(-c3ccccc3)cc2)OC(OCc2ccc(-c3ccccc3)cc2)[C@@H]1NC(=O)CNC(=N)N (stereo partly shown) [compound 51]
A5 radioligand binding inhibition (Human melanocortin (MC5)): + (“+” indicates greater than 50% inhibition at 10 μM) | A1 radioligand binding inhibition (Human δ-opioid (DOP)): − (“−” indicates less than 50% inhibition at 10 μM) | A3 radioligand binding inhibition (Human Melanocortin (MC3)): + (“+” indicates greater than 50% inhibition at 10 μM) | A7 radioligand binding inhibition (Human μ-opioid (MOP)): − (“−” indicates less than 50% inhibition at 10 μM) | A4 radioligand binding inhibition (Human Melanocortin (MC4)): + (“+” indicates greater than 50% inhibition at 10 μM) | A8 radioligand binding inhibition (Human neurokinin (NK1)): + (“+” indicates greater than 50% inhibition at 10 μM) | A10 radioligand binding inhibition (Human opioid (ORL1); human ORL1 membranes): + (“+” indicates greater than 50% inhibition at 10 μM) | A11 radioligand binding inhibition (Mouse urotensin (mUR2)): − (“−” indicates less than 50% inhibition at 10 μM) | A9 radioligand binding inhibition ([1]; human NPY-Y1 membranes): − (“−” indicates less than 50% inhibition at 10 μM) | A2 radioligand binding inhibition (Human κ-Opioid (KOP)): − (“−” indicates less than 50% inhibition at 10 μM) | A6 radioligand binding inhibition [2]: + (“+” indicates greater than 50% inhibition at 10 μM)

Reference: patent US20080009418A1, “Selective Inhibitors” (Alchemia LTD., priority 2004, published 2008)
